Reference: patent US20060281791A1, “Methods of increasing proliferation of adult mammalian cardiomyocytes through p38 map kinase inhibition” (CHILDREN'S MEDICAL CENTER CORPORATION, priority 2005, published 2006)

B1: FGF17 (protein, UniProt O60258 23-216, looked up)
Fibroblast growth factor 17: TQGENHPSPNFNQYVRDQGAMTDQLSRRQIREYQLYSRTSGKHVQVTGRRISATAEDGNKFAKLIVETDTFGSRVRIKGAESEKYICMNKRGKLIGKPSGKSKDCVFTEIVLENNYTAFQNARHEGWFMAFTRQGRPRQASRSRQNQREAHFIKRLYQGQLPFPNHAEKQKQFEFVGSAPTRRTKRTRRPQPLT
B2: FGF4 (protein, UniProt P08620 31-206, looked up)
Fibroblast growth factor 4: APTAPNGTLEAELERRWESLVALSLARLPVAAQPKEAAVQSGAGDYLLGIKRLRRLYCNVGIGFHLQALPDGRIGGAHADTRDSLLELSPVERGVVSIFGVASRFFVAMSSKGKLYGSPFFTDECTFKEILLPNNYNAYESYKYPGMFIALSKNGKTKKGNRVSPTMKVTHFLPRL
B3: CT-1 (protein, UniProt Q16619 1-201, looked up)
Cardiotrophin-1: MSRREGSLEDPQTDSSVSLLPHLEAKIRQTHSLAHLLTKYAEQLLQEYVQLQGDPFGLPSFSPPRLPVAGLSAPAPSHAGLPVHERLRLDAAALAALPPLLDAVCRRQAELNPRAPRLLRRLEDAARQARALGAAVEALLAALGAANRGPRAEPPAATASAASATGVFPAKVLGLRVCGLYREWLSRTEGDLGQLLPGGSA
B4: FGF6 (protein, UniProt P10767 38-208, looked up)
Fibroblast growth factor 6: SPAGTRANNTLLDSRGWGTLLSRSRAGLAGEIAGVNWESGYLVGIKRQRRLYCNVGIGFHLQVLPDGRISGTHEENPYSLLEISTVERGVVSLFGVRSALFVAMNSKGRLYATPSFQEECKFRETLLPNNYNAYESDLYQGTYIALSKYGRVKRGSKVSPIMTVTHFLPRI

How the values were obtained:
[1] = tested on: neonatal (P2) cardiomyocytes; assay: Induction of DNA synthesis (BrdU incorporation) in neonatal cardiomyocytes; assay type: cell-based, rat; conditions: BrdU labeling period 24 to 72 hours; harvested after 72 hours; optimal concentration of stimulus
Method: Animal experiments were performed in accordance with guidelines of Children's Hospital, Boston and UCLA. Ventricular cardiomyocytes from fetal (E19), 2-day-old (P2) and adult (250-350 g) Wistar rats (Charles River) were isolated as described with minor modifications (Engel et al. 1999; Engel et al. 2003). After digestion of fetal or neonatal hearts (0.14 mg/ml collagenase II (Invitrogen), 0.55 mg/ml pancreatin (Sigma)) cells were cultured in DMEM/F12 (GIBCO) containing 3 mM Na-pyruvate, 0.2% BSA, 0.1 mM ascorbic acid (Sigma), 0.5% Insulin-Transferrin-Selenium (100×), penicillin (100 U/ml), streptomycin (100 μg/ml), and 2 mM L-glutamine (GIBCO). Adult cardiomyocytes were cultured for 1 day in standard medium (DMEM, 25 mM Hepes, 5 mM taurine, 5 mM creatine, 2 mM L-carnitine (Sigma), 20 U/ml insulin (GIBCO), 0.2% BSA, penicillin (100 U/ml), and streptomycin (100 μg/ml)). Cells were stimulated in culture medium without BSA containing 2 mM L-glutamine. Neonatal and adult cardiomyocytes were initially cultured for 48 h in the presence of 20 μM cytosine β-D-arabinofuranoside (araC, Sigma) and 5% horse serum before stimulation to prevent proliferation of non-myocytes. Adult cardiomyocytes were incubated another 3 days with araC during stimulation. Neonatal cardiomyocytes were stimulated every day with growth factors for BrdU and H3P analyses (FGF1 and NRG-1-1β at 50 ng/ml, IL-1β at 100 ng/ml, R&D Systems, all diluted in 0.1% BSA/PBS). SB203580 and LY294002 (Calbiochem) was added every day. Adult cardiomyocytes were stimulated with fresh medium and SB203580 every 3 days.
Staining was performed as described (Supplemental Table S3) (Engel et al. 1999; Engel et al. 2003). Immune complexes were detected with ALEXA 350, ALEXA 488 or ALEXA 594-conjugated secondary antibodies (1:200, Molecular Probes). DNA was visualised with DAPI (4′,6′-diamidino-2-phenylindole, 0.5 μg/ml, Sigma). For BrdU, cells were cultured in 30 μM BrdU, incubated after permeabilization for 90 min in 2N HCl/1% triton X-100 and washed 3 times in PBS.
Eighteen to 40 hearts of 3 different litters were used for quantitative analyses of maximal areas. For immunofluorescence analyses 1,500 fetal or neonatal cardiomyocytes were counted. For adult cardiomyocyte analyses in vitro the following number of cells were counted: 500-2,000 for BrdU or Ki67, 9,000-25,000 for H3P, and 12,000-45,000 for aurora B. For in vivo MKK3bE and p38α knockout experiments 2 different litters were used. We counted 1,500-2,000 cells in each apex, left and right ventricle per heart. For adult experiments we analyzed 2 p38α^Δ/Δ and 2 p38^lox/lox hearts (24 sections each). Statistical significance was determined using Student's t test.
Several growth factors have a limited capacity to induce DNA synthesis in neonatal cardiomyocytes, including FGF1 (Pasumarthi and Field 2002). We screened 45 extracellular factors at two different concentrations for their ability to induce BrdU incorporation in neonatal (P2) cardiomyocytes. […] We confirmed previous studies showing that FGF1, IL-1β, and NRG-1-β1 are potent growth factors for neonatal cardiomyocytes (Supplemental Table S2) (Pasumarthi and Field 2002 Circ Res 90: 1044-54).
Inhibition of p38 activity by SB203580 increased BrdU incorporation 2.8-fold in neonatal cardiomyocytes stimulated with FGF1 (p<0.01). Similar results were obtained after stimulation with IL-1β and NRG-1-β1. Thus, inhibition of p38 activity augments growth factor-mediated DNA synthesis in neonatal cardiomyocytes.

[2] = tested on: p38 MAP kinase; conditions: cited from earlier work
[3] = tested on: myocardial infarction in adult rats; assay: Fractional shortening (echocardiography) after myocardial infarction; assay type: in vivo, rat
Method: The p38 inhibitors were tested for in vivo effect following myocardial infarct. For the evaluation of left ventricular function, transthoracic echocardiogram can be performed on the rats after myocardial infarction 1 day or 14 days right. Rats can be anesthetized with 4-5% isoflurane in an induction chamber. The chest can be shaved, and the rats can be placed in dorsal decubitus position and intubated for continuous ventilation. 1-2% isoflurane can be continuously supplied via a mask. 3 electrodes can be adhered to their paws to record the electrocardiographic tracing simultaneously with the cardiac image identifying the phase of a cardiac cycle.
Echocardiograms can be performed with a commercially available echocardiography system equipped with 7.5 MHz phased-array transducer (Philips-Hewlett-Packard). The transducer can be positioned on the left anterior side of the chest. Longitudinal images of the heart can be obtained, including the left ventricle, atrium, the mitral valve and the aorta, followed by the cross-sectional images from the plane of the base to the left ventricular apical region. M-mode tracings can be obtained at the level below the tip of the mitral valve leaflets at the level of the papillary muscles. Fractional shorting (FS) can be calculated as a measure of systolic function, according to the M-mode tracing from the cross-sectional view: maximal LV end-diastolic diameter (at the time of maximal cavity dimension), minimal LV end-systolic diameter (at the time of maximum anterior motion of the posterior wall), FS (%)={(LVEDD−LVESD)/LVEDD}×100.
To determine whether p38 inhibition/FGF1 stimulation can induce cardiomyocyte proliferation in vivo and whether it has a positive effect on cardiac function after cardiac injury we created myocardial infarctions (MI) in adult rats (250 g) by coronary artery ligation. The p38 inhibitor SB203580 HCl or its vehicle, saline, were injected intraperitoneal every three days for the first month of the study. FGF1 or its carrier BSA was injected mixed with self-assembling peptides once into the infarct border zone immediately after coronary artery ligation. We injecting a total of 80 μl of 400 ng/ml FGF1, given at 3 different injection sites, into 400 mg of infarcted myocardium estimated to deliver a FGF 1 concentration to the cardiomyocytes of approximately 50 to 100 ng/ml. Animals were analyzed 24 hours, 2 weeks, and 3 month after surgery. We performed two blinded and randomized studies using 62 rats for the 2 week and 61 rats for the 3 month experiment, with at least 10 animals in each experimental group. Animals were treated with saline plus BSA (control), SB203580 HCl plus BSA (p38i), saline plus FGF1 (FGF1), or SB203580 HCl plus FGF1 (p38i/FGF1).
Animal experiments were performed in accordance with guidelines of Children's Hospital in Boston and were approved by the Harvard Medical School Standing Committee on Animals. Myocardial infarction (MI) was produced in ˜250 gm male Sprague-Dawley rats (Charles River and Harlan) as described previously (Hsieh et al., 2006). Briefly, rats were anesthetized by pentobarbital and, following tracheal intubation, the hearts were exposed via left thoracotomy. The left coronary artery was identified after pericardiotomy and was ligated by suturing with 6-0 prolene at the location ˜3mm below the left atrial appendix. For the sham operation, suturing was performed without ligation. […]

[4] = cited from earlier work
[5] = tested on: JNK; conditions: cited from earlier work
[6] = tested on: ERK; conditions: cited from earlier work
[7] = tested on: LPS-stimulated human peripheral blood monocytes; conditions: cited from earlier work

Row | Molecule | % of BrdU positive neonatal cardiomyoctes [1] | also measured
1 | CNC[C@H](O)c1cccc(O)c1 [PE] | 23.7 ± 3.1% | –
2 | CCc1nc(-c2ccc(OC)cc2)[nH]c1-c1ccncc1 [SB202474] | – | p38 MAP kinase inhibition (in words) [2]: inactive
3 | C[S+]([O-])c1ccc(-c2nc(-c3ccc(F)cc3)c(-c3ccncc3)[nH]2)cc1.Cl (stereo not shown) [SB203580 HCl] | – | improvement of fractional shortening ([3]; 3 month after infarction): maintained; improvement of fractional shortening ([3]; day 14 after infarction): maintained; water solubility [4]: water insoluble
4 | COc1nccc(-c2c(-c3ccc(F)cc3)ncn2[C@H]2CC[C@H](O)CC2)n1 [SB239063] | – | selectivity over JNK [5]: > 200 fold; selectivity over ERK [6]: > 200 fold; IL-1 and TNF-β production [7]: inhibits; p38 MAP kinase inhibition (in words) [2]: potent
5 | FGF2 | 22.2 ± 1.8% | –
6 | IL-1β | 41.3 ± 3.2% | –
7 | TGFβ1 | 17.4 ± 2.2% | –
8 | B1 | 31.1 ± 1.7% | –
9 | B2 | 46.5 ± 3.9% | –
10 | B3 | 11.2 ± 1.1% | –
11 | B4 | 47.3 ± 3.3% | –
